The results in this text go back to the METLIN SMRT retention time set (Domingo-Almenara et al. 2019).

The data set in a line: gradient 5% acetonitrile 3 min, to 50% in 2 min, to 85% in 15 min, held 3 min, 100 µL/min. The settings on record: column: Zorbax Extend-C18 2.1 x 50 mm; eluents: water / acetonitrile, 0.1% formic acid. The method in brief: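 In both positive and negative ionization mode, a quadrupole time-of-flight mass spectrometer coupled to HPLC analyzed pure standards run in mixtures of ~100 molecules. The Zorbax Extend-C18 column (2.1 × 50 mm, 1.8 μm) was operated at 100 μL/min with water and acetonitrile, each containing 0.1% formic acid. The dead volume was 40 μL and the dwell volume 900 μL. Retention time came from adduct peaks that were computationally picked and individually inspected by hand.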
For `COc1ccc(Cl)cc1S(=O)(=O)NCC1CCN(c2ncccn2)CC1`, the RP-LC retention time worked out at 772 s. As for `O=C(NCc1ccccc1)c1nc(Cn2c(=O)oc3ccccc32)no1`, the RP-LC retention time amounted to 880 s.

Regarding `O=C(CCc1ccccc1)Nc1cnc(-c2cccnc2)nc1`, the RP-LC retention time came out at 690 s. Next, `O=C(c1ccc(F)cc1)N1CCCC1c1nc(-c2ccccc2)n[nH]1` (stereo not given): 726 s; `Cc1ccc(C)c(Cn2nc(-c3nc(C(C)(C)C)no3)ccc2=O)c1`: 1170 s. Take `COc1ccccc1OCC1c2ccsc2CCN1C(=O)CN(CC1CC1)C(=O)C(C)C` (stereo not given): the RP-LC retention time stood at 947 s. On to `CCN1C(=O)c2cccc3c(NC(=O)c4c(F)cccc4F)ccc1c23`, for which the RP-LC retention time is 739 s. In turn, `CCNC(=O)c1nnn(-c2cccc(Cl)c2)c1-c1cccnc1` had an RP-LC retention time of 740 s. For `CN1C(=O)c2cc(C(=O)NCc3ccccc3Br)nn2CC1(C)C(=O)NC1CCCC1` (stereo not given), the RP-LC retention time was determined as 828 s. Next, `CCC(C)NC(=O)Cn1ccc2ccc(-c3nnc(C)o3)cc21` (stereo not given): 713 s; `Cc1ccc(-n2c(=O)c3c(cc(C)n3C)n(CC(=O)N3CCc4ccccc43)c2=O)cc1`: 928 s.

Molecule `COc1ccc2[nH]c3c(c2c1)CCNC31CCN(Cc2ccc(F)c(F)c2)CC1` displayed an RP-LC retention time of 587 s.

Turning to `O=C(Cn1nc2c3ccc(F)cc3ncn2c1=O)NCc1ccc(F)cc1`, the RP-LC retention time came to 668 s. The molecule `CCOC(=O)N1CCN(c2ccc(C(F)(F)F)cc2[N+](=O)[O-])CC1` gave an RP-LC retention time of 967 s. `O=C(CN1CCN(C(=O)Nc2ccc(Cl)cc2)CC1=O)NC1CC1` showed an RP-LC retention time of 605 s.

In the case of `CC1(C(=O)NCc2ccc(F)cc2)Cn2cnc(C(=O)Nc3cc(F)ccc3F)c2C(=O)N1C1CC1` (stereo not given), the RP-LC retention time stood at 847 s. The molecule `Cc1cc(-c2nnc(C3CCC3)o2)c(C)n1CC(=O)Nc1cccc(F)c1` had an RP-LC retention time of 900 s. Next, `Cc1cccc(NC(=O)N2CCC(N3CCN(Cc4ccccn4)C(=O)C3=O)CC2)c1`: 610 s; `CC1CCc2[nH]nc(C(=O)N3CCN(C(C)C)CC3)c2C1` (stereo not given): 588 s. On to `Cc1cc(C)cc(NC(=O)Cn2c(C(C)C)nc3c(c2=O)CCN(Cc2ccccc2)C3)c1`, for which the RP-LC retention time was 759 s. For `Cc1c(C(=O)NCCN2CCCCCC2)sc2ncnc(N3CCN(C)CC3)c12`, the RP-LC retention time was found to be 551 s.

Take `Cc1nc(CC(=O)NC(C)c2ccccc2)sc1C(=O)NCc1ccccc1` (stereo not given): the RP-LC retention time amounted to 820 s.

For `Cc1ccc(-c2cc3c4nnc(CCC(=O)NCCCOC(C)C)n4ccn3n2)cc1C`, the RP-LC retention time turned out to be 759 s. The molecule `O=C(NCCSc1ncc(-c2ccc(F)cc2)[nH]1)c1ccccc1Cl` gave an RP-LC retention time of 604 s. Next, `COc1cccc(C(=O)NC2CCN(c3ccc(C)c(C)c3)C2=O)c1` (stereo not given): 869 s. To `CC(=O)c1cccc(NS(=O)(=O)c2ccc(-c3c(C)noc3C)cc2)c1` belongs 805 s. As for `COc1ccc(CSc2nnc3c(S(=O)(=O)N4CCCCC4)cccn23)cc1`, the RP-LC retention time turned out to be 861 s. The molecule `COc1cc([N+](=O)[O-])ccc1NC(=O)c1ccccc1S(C)(=O)=O` showed an RP-LC retention time of 749 s. With `Cc1ccccc1OCC(=O)NCC1CC(=O)N(c2ccccc2)C1` (stereo not given), the RP-LC retention time is 741 s. `O=C(Cn1ccc2ccccc21)NCCCC(=O)Nc1cccc2cccnc12` gave an RP-LC retention time of 786 s. In the case of `COc1ccccc1-n1ccn(Cc2nc(-c3ccccc3C)no2)c(=O)c1=O`, the RP-LC retention time was determined as 850 s. Molecule `O=C(C1CCN(S(=O)(=O)c2ccc(-c3noc(C4CC4)n3)cc2)CC1)N1CCc2ccccc2C1` returned an RP-LC retention time of 1050 s. For `Cc1ccc(CNC(=O)c2cc(NC(=O)C(C)C)cc3nc(C)ccc23)cc1`, the RP-LC retention time is 680 s. As to `O=C(CCc1csc(NC(=O)c2cccs2)n1)Nc1ccc2c(c1)OCCO2`, the RP-LC retention time worked out at 733 s.

Consider `O=C(c1ccsc1)N1CCCN(c2cc(-c3ccccc3)[nH]n2)CC1`, for which the RP-LC retention time is 741 s. To `COc1ccc(CNC(=O)C2CCN(c3cncnc3N3CCOCC3)CC2)cc1` belongs 651 s. As for `COc1ccc(C)c2sc(NCCCn3ccnc3)nc12`, the RP-LC retention time is 552 s. As for `Cc1ccccc1Cn1nnc2cc(C(=O)N3CCN(c4ncccn4)CC3)ccc21`, the RP-LC retention time turned out to be 819 s. In turn, `Cc1ccc(-c2noc(Cn3ccnc3C)n2)cc1` came in with an RP-LC retention time of 629 s. Next, `Cc1ccc(NC(=O)Cn2nnc(C(=O)NCc3cccs3)c2N)cc1`: 593 s; `CC1=C(c2ccc(Cl)cc2)S(=O)(=O)N=C1N1CCC(NC(=O)C2CCOC2)CC1` (stereo not given): 733 s.

In turn, `Clc1ccc(-c2ccc(CNc3ncn[nH]3)o2)c(Cl)c1` had an RP-LC retention time of 734 s. As for `Cc1cc(NC(=O)c2cc(=O)c3ccccc3o2)n(-c2nc(-c3ccc(F)cc3)cs2)n1`, the RP-LC retention time was found to be 1240 s. Take `COC(=O)c1nc(NC(=O)Cn2nc3c(cc2=O)CCCCC3)sc1C`: the RP-LC retention time was 778 s. Consider `Cc1ccc(CN2CCc3nc(N4CCN(c5ccccc5F)CC4)ncc3C2)s1`, for which the RP-LC retention time was found to be 799 s.

`CC(C)CNC(=O)N1CCc2nc(OCC3CC3)ccc2C1`: the RP-LC retention time came to 848 s.

Molecule `CCCNC(=O)c1ccc2c(c1)N(C)C(=O)CS2` yielded an RP-LC retention time of 843 s. `Cc1cc(-c2nc(C3CC3)no2)c(C)n1CC(=O)Nc1ccc(Cl)cc1` showed an RP-LC retention time of 1020 s. As for `O=C(Nc1ccc(F)cc1F)c1cc2n(n1)CCCC2`, the RP-LC retention time came out at 912 s. With `COc1ccc(Cn2c(=O)c3sccc3n(Cc3nc(-c4ccc(F)cc4)no3)c2=O)cc1`, the RP-LC retention time is 1080 s. In turn, `Cc1cc(C)cc(NC(=O)N2CCN(c3cc(-c4cccnc4)[nH]n3)CC2)c1` came in with an RP-LC retention time of 644 s.

`Cc1sc(NC(=O)c2ccco2)c(CN2CCN(c3ccc(F)cc3)CC2)c1C`: the RP-LC retention time was 691 s. The molecule `Cc1ccsc1C(=O)NCC(=O)N1CCCc2ccccc21` displayed an RP-LC retention time of 832 s. `COc1ccc(CCc2nc3nccc(-c4ccccc4)n3n2)cc1OC` returned an RP-LC retention time of 821 s.

Turning to `Fc1ccccc1Cn1cccc1-c1nc(-c2ccc3c(c2)OCO3)no1`, the RP-LC retention time was determined as 1230 s. `Cc1noc(-c2ccc(OC3CN(C(=O)c4sccc4C)C3)cc2)n1` yielded an RP-LC retention time of 900 s. Molecule `CCc1cccc(NS(=O)(=O)c2cc3n(c2)CCCN(CC)C3=O)c1` gave an RP-LC retention time of 756 s. `CNC(=O)c1sc2nc(-c3cccc(OC)c3)c(NC(C)(C)C)n2c1C` displayed an RP-LC retention time of 780 s. Molecule `COc1cccc(CNC(=O)C2(C)CCCN(C(=O)Nc3ccccc3C(F)(F)F)C2)c1` (stereo not given) returned an RP-LC retention time of 934 s. To `COc1cccc(-n2ccc(=O)c(-c3nc(-c4ccc5c(c4)OCO5)no3)n2)c1` belongs 799 s. In turn, `CN(Cc1nc(-c2ccc(N3CCSCC3)nc2)no1)C1CCCCC1` yielded an RP-LC retention time of 694 s.

Consider `CCCn1cc(C(=O)N2CCCC2)c2nn(-c3ccccc3)c(=O)c-2c1`, for which the RP-LC retention time was determined as 664 s.

In turn, `COc1cccc(-c2ccc(=O)n(CCc3nc(-c4ccc(F)cc4)no3)n2)c1` gave an RP-LC retention time of 981 s. To `COc1ccc(NC(=O)N2CC(N(C3CCOCC3)S(C)(=O)=O)C2)c(C)c1` belongs 664 s; to `COc1cccc(C(=O)N2CCN(c3cc(-c4cccs4)[nH]n3)CC2)c1OC`, 722 s; to `COc1cc2ncc(C(=O)c3ccccc3)c(N3CCN(C)CC3)c2cc1OC`, 556 s. `CC(C)CNC(=O)c1nc2cccnc2n(C)c1=O` showed an RP-LC retention time of 701 s.

Turning to `COc1ccc(-c2noc(CN3N=NC4C(=O)N(c5ccc(C)c(F)c5)C(=O)C43)n2)c(OC)c1` (stereo not given), the RP-LC retention time stood at 844 s. With `O=C(Cc1ccc2c(c1)OCO2)Nc1nc2c(s1)Cc1ccccc1-2`, the RP-LC retention time was 878 s. Turning to `CN(C)C(=O)c1ccc2c(c1)N(CC(=O)Nc1ccc(F)cc1)C(=O)CO2`, the RP-LC retention time came out at 654 s. Molecule `Cc1noc(-c2nc(-c3ccc(Cl)c(F)c3)no2)n1` had an RP-LC retention time of 1090 s. In the case of `Cc1ccc(S(=O)(=O)N2CCc3c(c(-c4nnc(-c5ccccc5)o4)nn3C)C2)cc1Cl`, the RP-LC retention time is 1070 s.

As for `COc1ccc(N2CC(c3noc(-c4cccc(Cl)c4)n3)CC2=O)cc1OC` (stereo not given), the RP-LC retention time was 944 s. Next, `CCC(CO)NCc1ccc(-c2ccccc2)o1` (stereo not given): 624 s. With `Cc1ccc(CNC(=O)C2CCCN(C(=O)c3[nH]c(C)c(C(=O)OC(C)C)c3C)C2)cc1` (stereo not given), the RP-LC retention time was 893 s. The molecule `CCCNC(=O)N(C1CCOCC1)C1CCN(C(=O)Nc2c(F)cccc2F)CC1` had an RP-LC retention time of 685 s.

Turning to `COCCNc1nc(Nc2ccc(C)c(C)c2)c2nccnc2n1`, the RP-LC retention time worked out at 597 s. With `Cc1nc([C@H]2CCN(Cc3ccc4[nH]ccc4c3)C[C@H]2N(C)C)n[nH]1`, the RP-LC retention time turned out to be 520 s.

The molecule `CCOC(=O)C1CCN(S(=O)(=O)c2cc(-c3nnc(-c4ccccc4)o3)ccc2OC)CC1` had an RP-LC retention time of 976 s. The molecule `COc1ccc(N2CCN(c3cc(SCC(=O)NCc4ccccc4OC)ncn3)CC2)cc1` yielded an RP-LC retention time of 888 s.
